# Results as given in patent US20220323269A1, “PERSONAL HYGIENE PRODUCT” (Croda International Plc, priority 2019, published 2022).
# Key:
# Type in all cases: in vivo
# [1] = tested on: skin, volar forearm test sites; assay: Irritation panel study, TEWL by POST (post occlusion stress test) protocol, SLS irritant model (Example 1); conditions: FIG. 1; 10 gsm polypropylene nonwoven with 1% SLS + 2% diester vs 1% SLS alone (Sample A); 24 hours under occlusion patch; 9 panellists
# Text: 10 gsm polypropylene nonwoven textile was cut into 11 mm diameter circles. Each circle was individually treated with water based dispersions then dried to achieve either a treat rate of a) 1% sodium lauryl sulphate (SLS, Sample A) based on weight of textile, or b) 1% SLS and 2% di-PPG-2 myreth-10 adipate (a diester skin care additive in accordance with the present invention, Sample B) based on percentage by weight of textile. SLS is a known skin irritant, and so provides a good model for assessing skin irritancy in test subjects/panellists.
# An irritation panel study was carried out, the study included 9 individual panellists. […]
# (§1) For each panellist three test sites on each volar forearm were identified and marked (i.e. 6 test sites in total per panellist were assessed). An initial trans-epidermal water loss (TEWL) reading was taken using an AquaFlux AF200 Instrument to ensure no initial skin irritation at each of the 6 test sites. […]
# (§2) After 24 hours panellists were again acclimatised to the laboratory environment for 20 mins at 20° C. and 45% relative humidity. TEWL was measured using the POST (post occlusion stress test) protocol. Under this test the occlusion patch is removed, along with the textile sample, the test site is then wiped of any surface moisture, and then TEWL readings are taken immediately using the same AquaFlux AF200 Instrument. […]
# [2] = tested on: skin, volar forearm test sites; assay: Comparative irritation panel study vs ester based emollient, TEWL by POST protocol (Example 4); conditions: FIG. 9; 10 gsm polypropylene nonwoven; 0.6% Cirrasol Care + 12% additive; 24 hours under occlusion patch; 16 panellists
# Text: 10 gsm polypropylene nonwoven textile was cut into 11 mm diameter circles. Each circle was individually treated with water based dispersions then dried to achieve a treat rate of a) 0.6% low-irritation hygiene finish (Cirrasol™ Care ex. Croda, Sample A) based on weight of textile, or b) 0.6% low-irritation hygiene finish and 12% di-PPG-2 myreth-10 adipate (a diester skin care additive in accordance with the present invention, Sample B), or c) 0.6% low-irritation hygiene finish and 12% of a saturated tri-ester based emollient (Crodamol™ GTCC ex. Croda, Sample C). Treat rates are expressed as percentage by weight of textile. […]
# as §1, §2
# [3] = tested on: skin, volar forearm test sites; assay: Comparative irritation panel study vs glycerine based emollient, TEWL by POST protocol (Example 3); conditions: FIG. 8; 10 gsm polypropylene nonwoven; 0.6% Cirrasol Care + 12% additive; 24 hours under occlusion patch; 16 panellists
# Text: 10 gsm polypropylene nonwoven textile was cut into 11 mm diameter circles. Each circle was individually treated with water based dispersions then dried to achieve a treat rate of a) 0.6% low-irritation hygiene finish (CirrasolTM Care ex. Croda, Sample A), or b) 0.6% low irritation hygiene finish and 12% […]-10 adipate (a diester skin care additive in accordance with the present invention, Sample B), or c) 0.6% low-irritation hygiene finish and 12% of a glycerine based emollient (Sample C). Treat rates are expressed as percentage by weight of textile. An irritation panel study was carried out, the study included 16 individual panellists. […] For each panellist three test sites on each volar forearm were identified and marked (i.e. 6 test sites in total per panellist were assessed). An initial trans-epidermal water loss (TEWL) reading was taken using an AquaFlux AF200 Instrument to ensure no initial skin irritation at each of the 6 test sites. […] TEWL was measured using the POST (post occlusion stress test) protocol. Under this test the occlusion patch is removed, along with the textile sample, the test site is then wiped of any surface moisture, and then TEWL readings are taken immediately using the same AquaFlux AF200 Instrument. TEWL is measured until the water loss rate peaks, and for the following 5 minutes. Results are measured in total water loss for 5 minutes after water loss rate peaks. […]
substance,measurement,setting,value
di-PPG-2 myreth-10 adipate [diester skin care additive],decrease in skin water loss (combined average TEWL of all panellists),[1],31%
same,skin irritation from nonwoven in contact with skin (combined average TEWL) compared to low-irritancy hygiene finish alone,[2],reduced skin irritation
same,skin irritation from nonwoven in contact with skin (combined average TEWL) compared to low-irritancy hygiene finish alone,[3],reduced skin irritation
